Measurements taken from PubChem BioAssay AID651581 (Sanford-Burnham Center for Chemical Genomics, 2012).
Active and inactive are the calls of the source. The rule behind the calls is not given here.

Columns and labels:
[1] = biological target: Hypoxia-inducible factor 1-alpha (Homo sapiens) (UniProt Q16665); test: potency against HIF reporters across cell lines – luminescence, panel, selectivity assay for HIF-2a inhibitor project, dose response (AID 651581); conditions: human cell HIF reporter, HIF-1a
[2] = biological target: Endothelial PAS domain-containing protein 1 (Homo sapiens) (UniProt Q99814); test: as above; conditions: human cell HIF reporter

Hypoxia-inducible factor 1-alpha (Homo sapiens), sequence (Q16665 whole entry, looked up, the tested form may be a part): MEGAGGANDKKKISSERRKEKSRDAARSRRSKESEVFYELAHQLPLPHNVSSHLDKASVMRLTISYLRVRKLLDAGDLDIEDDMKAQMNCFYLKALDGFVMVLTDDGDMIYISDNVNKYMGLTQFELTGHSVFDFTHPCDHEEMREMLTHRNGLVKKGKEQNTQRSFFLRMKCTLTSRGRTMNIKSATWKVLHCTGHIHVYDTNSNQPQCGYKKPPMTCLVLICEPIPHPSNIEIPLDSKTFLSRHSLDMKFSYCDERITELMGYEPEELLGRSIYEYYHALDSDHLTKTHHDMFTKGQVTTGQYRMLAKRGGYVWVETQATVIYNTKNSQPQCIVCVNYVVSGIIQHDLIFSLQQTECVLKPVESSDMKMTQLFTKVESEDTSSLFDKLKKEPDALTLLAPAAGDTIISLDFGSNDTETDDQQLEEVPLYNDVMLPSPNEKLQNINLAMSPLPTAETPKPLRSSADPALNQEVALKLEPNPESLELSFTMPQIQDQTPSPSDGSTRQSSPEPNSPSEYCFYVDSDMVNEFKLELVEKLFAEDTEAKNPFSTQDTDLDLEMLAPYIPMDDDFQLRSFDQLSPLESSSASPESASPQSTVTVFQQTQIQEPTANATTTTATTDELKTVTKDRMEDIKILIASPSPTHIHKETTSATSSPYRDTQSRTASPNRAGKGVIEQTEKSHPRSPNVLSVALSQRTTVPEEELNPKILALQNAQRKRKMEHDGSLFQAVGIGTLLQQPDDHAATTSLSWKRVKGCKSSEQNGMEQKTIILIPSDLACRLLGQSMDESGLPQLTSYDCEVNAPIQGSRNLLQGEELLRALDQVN

Row | Compound | IC50 ([1]; mean of runs) | IC50 ([1]; run 1) [µM] | IC50 ([1]; run 2) [µM] | IC50 ([2]; HIF-2a PANC, mean of runs) | IC50 ([2]; HIF-2a PANC, run 1) [µM] | IC50 ([2]; HIF-2a PANC, run 2) [µM] | IC50 ([2]; HIF-2a, mean of runs) | IC50 ([2]; HIF-2a, run 1) [µM] | IC50 ([2]; HIF-2a, run 2) [µM]
1 | O=C(Nc1ccc(NC(=O)c2ccco2)cc1)c1ccc2c(c1)OCCO2 |  | > 99 | 86 | 11.2 µM | 10.1 | 12.4 | 7.76 µM | 8.03 | 7.48
2 | O=C(Nc1ccc(NC(=O)c2cccs2)cc1)c1ccc2c(c1)OCCO2 | > 99 µM (inactive) | > 99 | > 99 | 1.93 µM | 2.06 | 1.79 |  | 22 | > 99
3 | COc1cc(OC)cc(-c2nnc(Nc3nc4c(F)cccc4s3)o2)c1 |  | > 99 | > 99 | 6.26 µM | 7.31 | 5.21 | 3.15 µM | 4.09 | 2.2
4 | O=S(=O)(Nc1cccc2cccnc12)c1ccccc1 |  | > 99 | > 99 | > 99 µM (inactive) | > 99 | > 99 | 3.37 µM | 3.54 | 3.2
5 | C/C(=N\OCc1cccc(C(=O)O)c1)c1ccc(Cl)cc1 |  | > 99 | > 99 | > 99 µM (inactive) | > 99 | > 99 |  | < 10 | 5.87
6 | O=C(O)c1ccc2nc(-c3ccccc3)sc2c1 | inactive | 26.6 | 22.9 | 11.4 µM | 12.7 | 10.2 |  | < 30 | > 99
7 | O=C(O)c1cccc(NC(=S)NC(=O)c2ccc3ccccc3c2)c1 |  | > 99 | > 99 |  | < 30 | > 99 | inactive | 10.9 | 9.32
8 | Cc1ccc(/C=N/Nc2cccc(C(=O)O)c2)s1 | > 99 µM (inactive) | > 99 | > 99 |  | > 99 | > 99 |  | < 30 | > 99
9 | COc1cc(/C=N/O)ccc1OCc1ccc(C(=O)O)cc1 |  | > 99 | > 99 | > 99 µM (inactive) | > 99 | > 99 | 4.29 µM | 5.58 | 3
10 | CCOC(=O)CNC(=O)CSc1nnc(NC(=O)c2ccc(C)cc2)s1 |  | > 99 | > 99 | inactive | 63.2 | 25.5 | 9.66 µM | 11.8 | 7.56
11 | CC(C)c1ccc(/C=N/Nc2ccc(C(=O)O)cc2)cc1 | 24.8 µM | 28 | 21.7 | < 1 µM | < 3 | < 1 |  | 7.97 | < 0.19
12 | CCOC(=O)NC(=O)COC(=O)CCCSc1nc2ccccc2s1 | inactive | 24.2 | 13.4 | 11.3 µM | 12 | 10.7 | 9.56 µM | 8.83 | 10.3
13 | O=C(Nc1sc2c(c1C(=O)O)CCC2)c1ccccc1Cl |  | 85.7 | > 99 |  | > 99 | 50.5 | > 99 µM (inactive) | > 99 | > 99
14 | O=c1[nH]c2ccc(Br)cc2c(=O)o1 |  | > 99 | 20 | 47.5 µM | 36.4 | 58.6 | inactive | 19.3 | 20
15 | CC(C)(C)c1ccc(/C=N/Nc2ccc(C(=O)O)cc2)cc1 | inactive | 52.5 | 40.5 | < 0.3 µM | < 1 | < 0.3 |  | > 99 | < 0.19
16 | CCOC(=O)c1sc(NC(=O)c2cc3c(s2)CCC(C)C3)nc1C (configuration not stated) |  | 20.5 | > 99 |  | < 1 | > 99 |  | 0.2 | > 99
17 | COc1ccc(OC)c(S(=O)(=O)ON2C(=O)c3ccccc3C2=O)c1 |  | > 99 | > 99 | > 99 µM (inactive) | > 99 | > 99 | 8.27 µM | 9.25 | 7.3
18 | O=C(O)c1cccc(CSc2nnc(-c3ccc(Cl)cc3)o2)c1 |  | > 99 | > 99 | 2.81 µM | 3.03 | 2.6 | 1.97 µM | 1.87 | 2.07

Compounds with a lower IC50 ([1]; run 1), results first:

Row | IC50 ([1]; mean of runs) | IC50 ([1]; run 1) [µM] | IC50 ([1]; run 2) [µM] | IC50 ([2]; HIF-2a PANC, mean of runs) | IC50 ([2]; HIF-2a PANC, run 1) [µM] | IC50 ([2]; HIF-2a PANC, run 2) [µM] | IC50 ([2]; HIF-2a, mean of runs) | IC50 ([2]; HIF-2a, run 1) [µM] | IC50 ([2]; HIF-2a, run 2) [µM] | Compound
19 | inactive | 14.9 | 15.9 | 3.59 µM | 3.76 | 3.42 | 5.89 µM | 5.61 | 6.17 | Cc1ccc(Oc2ccc(OCC(=O)Nc3ccncc3)cc2)cc1
20 | inactive | 10.2 | 11.8 | inactive | 15.3 | 13.2 | 4.26 µM | 4.25 | 4.26 | CCOC(=O)c1c(C)nn(-c2ccc(NC(=O)c3c(C)noc3C)cc2)c1C
21 | inactive | 12.2 | 20.3 | 1.51 µM | 1.86 | 1.15 |  | > 99 | 1.58 | CC(=O)N(C(C)=O)c1ccc(Oc2ccc(Oc3ccc(N(C(C)=O)C(C)=O)cc3)cc2)cc1
22 | inactive | 15.4 | 15.7 |  | > 99 | 16.2 | inactive | 14.3 | 14.4 | CC1(C)CC[C@]2(C(=O)O)CC[C@]3(C)C(=CC[C@@H]4[C@@]5(C)CC[C@H](O[C@@H]6O[C@H](C(=O)O)[C@@H](O)[C@H](O[C@@H]7OC[C@H](O)[C@H](O)[C@H]7O)[C@H]6O)C(C)(C)[C@@H]5CC[C@]43C)[C@@H]2C1
23 | 24.3 µM | 3.84 | 44.7 | 2.4 µM | 2.9 | 1.91 | 3.26 µM | 3.59 | 2.92 | Cc1nc2cc(-c3ccccc3)nn2c(C)c1CCC(=O)NC(C)c1ccc2c(c1)OCCO2 (configuration not stated)
24 | inactive | 3.37 | 1.1 | 2.37 µM | 2.39 | 2.34 | 2.66 µM | 2.56 | 2.75 | NNC(=O)COc1ccc(-c2nccc(-c3ccc(F)cc3)n2)cc1
25 | 18.6 µM | 19.2 | 18 | inactive | 41.1 | 11.9 | 4.38 µM | 4.45 | 4.31 | Cc1nc2cc(-c3cccc(F)c3)nn2c(C)c1CCC(=O)NC(C)c1ccc2c(c1)OCCO2 (configuration not stated)
26 |  | < 10 | > 99 | 0.711 µM | 0.556 | 0.866 |  | > 99 | 0.221 | CCOC(=O)Cc1csc(N/N=C/c2ccc(C(F)(F)F)cc2)n1
